Our source for the IC50 cell viability values is the supplement of paper PMC12325586.

This assay concerns MIA PaCa-2. Here is the method: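 MIA PaCa-2 Tet-on shOFD1 pancreatic cancer cells (2000 cells/well, 96-well) were treated with Selleck FDA-approved library compounds at 0, 1, 5, 10, 25 and 50 µM, with extra concentrations added where needed, for 72 h at 37 °C. Knockdown wells also received 100 ng/mL doxycycline; control wells received DMSO without doxycycline. Viability was read by CCK-8 absorbance at 450 nm and normalised to DMSO control wells. IC50 was fitted in GraphPad Prism as a 4-parameter logistic with bottom fixed at 0 and top fixed at 1; at least 3 technical replicate wells per condition.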

The mark [1] stands for this setting: OFD1 knockdown: no (no doxycycline).
Setting [2] is: OFD1 knockdown: yes (Tet-on shOFD1, 100 ng/mL doxycycline).

The structures appear in SMILES notation.

Regarding `Cc1ccc(NC(=O)c2ccc(CN3CCN(C)CC3)cc2)cc1Nc1nc(-c2cccnc2)cs1` [S1064], the IC50 cell viability by setting is: under setting [1], 68.8 µM; under setting [2], 66.2 µM.

As to `CCCS(=O)(=O)Nc1ccc(F)c(C(=O)c2c[nH]c3ncc(-c4ccc(Cl)cc4)cc23)c1F` [S1267], the IC50 cell viability runs as follows: under setting [1], 17 µM; under setting [2], 17.6 µM.

In the case of `Nc1nc(Cl)nc2c1ncn2[C@H]1C[C@H](O)[C@@H](CO)O1` [S1199], the IC50 cell viability by setting is: under setting [1], 55.1 µM; under setting [2], 49.9 µM.

Consider `CS(=O)(=O)CCNCc1ccc(-c2ccc3ncnc(Nc4ccc(OCc5cccc(F)c5)c(Cl)c4)c3c2)o1` [S2111], for which the IC50 cell viability under setting [1] was 9.12 µM and the IC50 cell viability under setting [2] came out at 8.03 µM.

Regarding `CC(=O)O[C@]1(C(C)=O)CC[C@H]2[C@@H]3C=C(C)C4=CC(=O)CC[C@]4(C)[C@H]3CC[C@@]21C` [S1304], the IC50 cell viability under setting [1] turned out to be 2.01 µM and the IC50 cell viability under setting [2] came to 1.81 µM.

Consider `C[C@]12CCC(=O)C(O)=C1CC[C@@H]1[C@@H]2CC[C@]2(C)C(=O)CC[C@@H]12` [S2208], for which the IC50 cell viability amounted to 11 µM under setting [1] and 10.4 µM under setting [2].

In turn, `N[C@@H](CC(=O)N1CCn2c(nnc2C(F)(F)F)C1)Cc1cc(F)c(F)cc1F` [S4002] yielded an IC50 cell viability under setting [1] of 21.9 µM and an IC50 cell viability under setting [2] of 21.2 µM.

Consider `Cc1ccc(Nc2nccc(N(C)c3ccc4c(C)n(C)nc4c3)n2)cc1S(N)(=O)=O` [S3012], for which the IC50 cell viability turned out to be 14 µM under setting [1] and 12.6 µM under setting [2].

`C[C@@H]1C[C@H]2[C@@H]3CCC4=CC(=O)C=C[C@]4(C)[C@@]3(F)[C@@H](O)C[C@]2(C)[C@@]1(O)C(=O)CO` [S1322]: the IC50 cell viability reads like this: under setting [1], 8.52 µM; under setting [2], 7.75 µM.

For `CCN(CCO)CCCOc1ccc2c(Nc3cc(CC(=O)Nc4cccc(F)c4)[nH]n3)ncnc2c1` [S1147], the IC50 cell viability stood at 16.7 µM under setting [1] and 15.1 µM under setting [2].

In the case of `Nc1cccc2c1C(=O)N(C1CCC(=O)NC1=O)C2=O` (stereo not given) [S1567], the IC50 cell viability worked out at 15.7 µM under setting [1] and 15.5 µM under setting [2].

For `CC(C)(C)c1cc(NC(=O)Nc2ccc(-c3cn4c(n3)sc3cc(OCCN5CCOCC5)ccc34)cc2)no1` [S1526], the IC50 cell viability reads like this: under setting [1], 13.8 µM; under setting [2], 14.4 µM.

With `CN(Cc1cnc2nc(N)nc(N)c2n1)c1ccc(C(=O)N[C@@H](CCC(=O)O)C(=O)O)cc1` [S1210], the IC50 cell viability runs as follows: under setting [1], 0.47 µM; under setting [2], 0.39 µM.

Consider `COc1c(C)c2c(c(O)c1C/C=C(\C)CCC(=O)O)C(=O)OC2` [S2487], for which the IC50 cell viability by setting is: under setting [1], 10.9 µM; under setting [2], 9.95 µM.

For `CCc1ccc(CCOc2ccc(CC3SC(=O)NC3=O)cc2)nc1` (stereo not given) [S2590], the IC50 cell viability came out at 2.72 µM under setting [1] and 3.16 µM under setting [2].

With `C=C(c1ccc(C(=O)O)cc1)c1cc2c(cc1C)C(C)(C)CCC2(C)C` [S2098], the IC50 cell viability reads like this: under setting [1], 19.7 µM; under setting [2], 21.3 µM.

On to `CCOc1ccc(Cc2cc([C@@H]3O[C@H](CO)[C@@H](O)[C@H](O)[C@H]3O)ccc2Cl)cc1` [S1548], for which the IC50 cell viability reads like this: under setting [1], 16.5 µM; under setting [2], 17 µM.

Consider `CCC1(c2ccc(N)cc2)CCC(=O)NC1=O` (stereo not given) [S1672], for which the IC50 cell viability is 23.6 µM under setting [1] and 22.2 µM under setting [2].

The compound `O=C(c1ccc(OCCN2CCCCC2)cc1)c1c(-c2ccc(O)cc2)sc2cc(O)ccc12` [S1227] returned an IC50 cell viability under setting [1] of 8.3 µM and an IC50 cell viability under setting [2] of 8.74 µM.

`CN1CCN(c2nc(C3=C(c4c[nH]c5ccccc45)C(=O)NC3=O)c3ccccc3n2)CC1` [S2791]: the IC50 cell viability came to 22.1 µM under setting [1] and 20.1 µM under setting [2].

On to `Cc1cc(C)c2c(c1)[C@@H](N(Cc1cc(C(F)(F)F)cc(C(F)(F)F)c1)c1nnn(C)n1)CCCN2C[C@H]1CC[C@H](C(=O)O)CC1` [S2925], for which the IC50 cell viability came out at 7.47 µM under setting [1] and 5.94 µM under setting [2].

`CC#C[C@]1(O)CC[C@H]2[C@@H]3CCC4=CC(=O)CCC4=C3[C@@H](c3ccc(N(C)C)cc3)C[C@@]21C` [S2606]: the IC50 cell viability under setting [1] worked out at 9.08 µM and the IC50 cell viability under setting [2] worked out at 8.71 µM.

As for `COc1cc2c(Oc3ccc4[nH]c(C)cc4c3F)ncnc2cc1OCCCN1CCCC1` [S1017], the IC50 cell viability is 13.1 µM under setting [1] and 13.5 µM under setting [2].

`OC(CNCC(O)C1CCc2cc(F)ccc2O1)C1CCc2cc(F)ccc2O1` (stereo not given) [S1549] gave an IC50 cell viability under setting [1] of 28.8 µM and an IC50 cell viability under setting [2] of 27.2 µM.

`C=CCNC1=C2C[C@@H](C)C[C@H](OC)[C@H](O)[C@@H](C)/C=C(\C)[C@H](OC(N)=O)[C@@H](OC)/C=C\C=C(/C)C(=O)NC(=CC1=O)C2=O` [S1141]: the IC50 cell viability was determined as 1.07 µM under setting [1] and 0.75 µM under setting [2].

On to `O=C(O)CCCc1ccc(N(CCCl)CCCl)cc1` [S4288], for which the IC50 cell viability is, setting by setting: under setting [1], 21.7 µM; under setting [2], 19.3 µM.

Turning to `O=C(O)c1ccc2c(c1)nc(Nc1cccc(Cl)c1)c1ccncc12` [S2248], the IC50 cell viability is 4.02 µM under setting [1] and 3.69 µM under setting [2].

On to `CN(C)CCOc1ccc(/C(=C(/CCCl)c2ccccc2)c2ccccc2)cc1` [S1776], for which the IC50 cell viability by setting is: under setting [1], 47.6 µM; under setting [2], 46.9 µM.

Take `COc1cc2nccc(Oc3ccc(NC(=O)Nc4cc(C)on4)c(Cl)c3)c2cc1OC` [S1207]: the IC50 cell viability was 10 µM under setting [1] and 7.5 µM under setting [2].

As to `CC(C)c1cc(-c2n[nH]c(=O)n2-c2ccc3c(ccn3C)c2)c(O)cc1O` [S1159], the IC50 cell viability worked out at 2.42 µM under setting [1] and 2.01 µM under setting [2].

On to `CN(C)/N=N/c1[nH]cnc1C(N)=O` [S1221], for which the IC50 cell viability is 52.8 µM under setting [1] and 51.9 µM under setting [2].

Consider `COc1cc(OC)c(/C=C/S(=O)(=O)Cc2ccc(OC)c(NCC(=O)O)c2)c(OC)c1` [S1362], for which the IC50 cell viability worked out at 2.53 µM under setting [1] and 2.01 µM under setting [2].

As to `COC(=O)c1ccc2c(C(=Nc3ccc(N(C)C(=O)CN4CCN(C)CC4)cc3)c3ccccc3)c(O)[nH]c2c1` [S1010], the IC50 cell viability by setting is: under setting [1], 4.96 µM; under setting [2], 4.24 µM.

As to `Cn1nnc2c(C(N)=O)ncn2c1=O` [S1237], the IC50 cell viability under setting [1] came out at 12 µM and the IC50 cell viability under setting [2] was found to be 11.3 µM.

As for `O=c1[nH]c(=O)n([C@H]2C[C@H](O)[C@@H](CO)O2)cc1F` [S1299], the IC50 cell viability runs as follows: under setting [1], 11.5 µM; under setting [2], 11.4 µM.

In the case of `Nc1cccc2c1CN(C1CCC(=O)NC1=O)C2=O` (stereo not given) [S1029], the IC50 cell viability reads like this: under setting [1], 44 µM; under setting [2], 42.9 µM.

For the compound `FC(F)(F)c1ccc(/C=C/c2nc(COc3ccc(CCCCn4ccnn4)cc3)co2)cc1` [S2216], the IC50 cell viability under setting [1] was 41.1 µM and the IC50 cell viability under setting [2] was 37.6 µM.

Turning to `CC(=O)c1c(C)c2cnc(Nc3ccc(N4CCNCC4)cn3)nc2n(C2CCCC2)c1=O` [S1116], the IC50 cell viability reads like this: under setting [1], 43.1 µM; under setting [2], 46.4 µM.

As to `COCC[n+]1c2c(n(Cc3cnccn3)c1C)C(=O)c1ccccc1C2=O` [S1130], the IC50 cell viability was 0.82 µM under setting [1] and 0.92 µM under setting [2].

In the case of `Cc1nc(-c2ccc(OCC(C)C)c(C#N)c2)sc1C(=O)O` [S1547], the IC50 cell viability is, setting by setting: under setting [1], 12.4 µM; under setting [2], 12.3 µM.

For `COc1cc2nccc(Oc3ccc(NC(=O)NC4CC4)c(Cl)c3)c2cc1C(N)=O` [S1164], the IC50 cell viability by setting is: under setting [1], 21.1 µM; under setting [2], 19.7 µM.

With `NC(=O)c1ccc(I)c([N+](=O)[O-])c1` [S1087], the IC50 cell viability amounted to 69.1 µM under setting [1] and 51.3 µM under setting [2].

For `Nc1ccn([C@@H]2O[C@H](CO)[C@@H](O)C2(F)F)c(=O)n1` [S1714], the IC50 cell viability was 3.36 µM under setting [1] and 3.16 µM under setting [2].

Consider `COc1ccccc1OCC(O)CN1CCN(CC(=O)Nc2c(C)cccc2C)CC1` (stereo not given) [S1799], for which the IC50 cell viability by setting is: under setting [1], 20.2 µM; under setting [2], 19.2 µM.

As for `Cn1c(CCCC(=O)O)nc2cc(N(CCCl)CCCl)ccc21` [S1212], the IC50 cell viability stood at 15.8 µM under setting [1] and 17 µM under setting [2].

On to `Cn1cnc2c(F)c(Nc3ccc(Br)cc3Cl)c(C(=O)NOCCO)cc21` [S1008], for which the IC50 cell viability is 1.66 µM under setting [1] and 1.44 µM under setting [2].

On to `Cc1ccc(NC(=O)c2ccc(CN3CCN(C)CC3)cc2)cc1Nc1nccc(-c2cccnc2)n1` [S2475], for which the IC50 cell viability is 6.98 µM under setting [1] and 6.56 µM under setting [2].

Turning to `Cc1c(C(=O)Nc2ccc(N3C[C@@H](C)O[C@@H](C)C3)nc2)cccc1-c1ccc(OC(F)(F)F)cc1` [S2151], the IC50 cell viability by setting is: under setting [1], 3.41 µM; under setting [2], 3.2 µM.

On to `O=C(O)C(=O)O.[NH-][C@@H]1CCCC[C@H]1[NH-].[Pt+2]` [S1224], for which the IC50 cell viability runs as follows: under setting [1], 60.3 µM; under setting [2], 57.3 µM.

As for `C[C@]1(c2nc3c(C(N)=O)cccc3[nH]2)CCCN1` [S1004], the IC50 cell viability is, setting by setting: under setting [1], 77 µM; under setting [2], 44.1 µM.

On to `CNC(=O)c1cc(Oc2ccc(NC(=O)Nc3ccc(Cl)c(C(F)(F)F)c3)cc2)ccn1` [S1040], for which the IC50 cell viability by setting is: under setting [1], 8.15 µM; under setting [2], 7.5 µM.

`O=c1[nH]cc(F)c(=O)[nH]1` [S1209]: the IC50 cell viability reads like this: under setting [1], 3.34 µM; under setting [2], 2.54 µM.

Regarding `CCN(CC)C(=S)SSC(=S)N(CC)CC` [S1680], the IC50 cell viability was 46.3 µM under setting [1] and 49.8 µM under setting [2].

As for `COc1cc2nccc(Oc3ccc(NC(=O)C4(C(=O)Nc5ccc(F)cc5)CC4)cc3)c2cc1OC` [S4001], the IC50 cell viability is, setting by setting: under setting [1], 5.3 µM; under setting [2], 4.97 µM.

`CN1CCN(CCOc2cc(OC3CCOCC3)c3c(Nc4c(Cl)ccc5c4OCO5)ncnc3c2)CC1` [S1006] showed an IC50 cell viability under setting [1] of 7.48 µM and an IC50 cell viability under setting [2] of 8.13 µM.
